Assay results reported in PMC10313921, “A living ex vivo platform for functional, personalized brain cancer diagnosis” (Cell Reports Medicine, 2023).

Key:
Format in all cases: cell-based, human
[1] = tested on: MB231Br (breast cancer metastasis to brain); experiment: Drug screening of MB231Br tumor foci on OBSCs
[2] = tested on: LN229 (established GBM line); experiment: Drug screening of LN229 tumor foci on OBSCs
In short: (§1)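 Tumor foci (25,000 cells) were seeded onto organotypic brain slice cultures 2 h after slicing, two per slice; one day later six drug concentrations were added to the medium or X-ray was applied. Bioluminescence was read 3 days after treatment, normalized to day-one fluorescence and to untreated controls.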

[3] = tested on: U373WT (wild-type established GBM line); experiment: Drug screening of U373WT tumor foci on OBSCs
In short: as §1

[4] = tested on: U373KO (RAD18 knockout of U373WT via CRISPR); experiment: Drug screening of U373KO tumor foci on OBSCs; settings: U373 KO on OBSCs
In short: as §1

[5] = tested on: GBM8 (high-passage patient-derived GBM line); experiment: Drug screening of GBM8 tumor foci on OBSCs
In short: as §1

[6] = tested on: MS21 (low-passage patient-derived GBM line); experiment: Drug screening of MS21 tumor foci on OBSCs
In short: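 Drug effects on tumor foci grown on brain slices are quantified by bioluminescence three days after treatment, relative to untreated foci and day-one fluorescence. Efficacy versus slice toxicity is combined into a weighted drug sensitivity score.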

[7] = tested on: PDIPG (low-passage pediatric patient-derived line); experiment: Drug screening of PDIPG tumor foci on OBSCs
In short: as §1

[8] = tested on: PIS patient tumor tissue (intracranial sarcoma); experiment: Drug screening of uncultured patient tumor tissue PIS on OBSCs; settings: PIS patient tissue; scale -100 to +100
Description: Tumor cells were seeded onto OBSCs 2h after slicing as described above. One day after tumor seeding, six concentrations of each drug were diluted in the media underneath each culture insert, or XRad was applied using an X-Rad 320 Precision X-ray machine (n = 4 tumor foci per concentration; n ≥ 24 tumor foci per drug per cell line). Three days after treatment, the bioluminescence of live tumor cells was measured using an AMI optical imager (Spectral Instruments) and dose-response curves were generated. Tumor survival was normalized to day one tumor fluorescence and compared to an untreated control group.
To engraft onto OBSCs, the cryopreserved/thawed or fresh brain tumor tissue was filtered through a 100 μm cell strainer. Each 50 mg of tissue was transfected with 1mL mcherry-FLuc Lentivirus at 1.5e7 vg/ml with 1μL polybrene for 4h at 37°C. After incubation, the brain tumor tissue was washed with PBS three times to remove the residual virus and reconstituted in PBS with a final volume of 150 μL. Then the tissue solution was engrafted atop OBSCs at ∼0.5 mg tissue in 3 μL of PBS on each hemisphere of the slice. The OBSC engrafted with patient tumor tissue was incubated at 37°C with 5% CO2 and 95% humidity. The BSM was changed after 24h and subsequently every 3 days. Tumor treatment studies were executed as described above for tumor lines. The viability of the patient tissue was measured by an AMI optical imaging system with the addition of 1.5 mg/mL luciferin underneath the culture insert.
Several weighted parameters were factored into an overall drug sensitivity score.
For DSS parameters 1–6, therapeutic windows were calculated by comparing OBSC toxicity and tumor response at the doses where tumor kill passed through the DSS parameter (Table S1 and S3). For DSS parameter 7, the therapeutic window was calculated by comparing the slopes through the tumor EC50 and the OBSC tox EC50. For DSS parameter 8, the therapeutic window was calculated by comparing the areas under tumor kill and OBSC tox curves. Normalized therapeutic window ratios for DSS parameters 1–8 within each drug-tumor-OBSC interaction were calculated in the following manner: within each window, values ranged from +1 to −1, where values approaching +1 signify increasing tumor kill relative to normal tissue toxicity, and values approaching −1 indicate agents where tumors remained highly viable while toxicity to the normal OBSC tissue was elevated. DSS parameters 9–11 were determined based on the behavior of the tumor in response to the drug, as defined above.
All individually weighed parameters were added together to generate the DSS. Overall DSS from 0 to 100 signify increasing efficacy in tumor kill relative to OBSC toxicity, while scores from 0 to −100 describe scenarios in which tumors thrive more effectively than OBSCs for a given treatment. Dose-response values were calculated via linear interpolation of raw data, not from best-fit curve equations.

[9] = tested on: 7 cell lines (MB231Br, LN229, U373WT, U373KO, GBM8, MS21, PDIPG); experiment: Drug screening on OBSCs, summary over the panel of seven tumor lines; settings: number of lines responding
In short: as §1

[10] = area under the dose-response curve, trapezoidal rule
[11] = dose required to kill 10% of the tumor
[12] = dose required to kill 25% of the tumor

In the case of COc1cc([C@@H]2c3cc4c(cc3[C@@H](O[C@@H]3O[C@@H]5CO[C@@H](C)O[C@H]5[C@H](O)[C@H]3O)[C@H]3COC(=O)[C@H]23)OCO4)cc(OC)c1O [Etoposide], the EC50 ([1]; Homo sapiens, MB231BR on OBSCs, dose required to kill 50% of the tumor) is reported as 100 µM, the EC90 ([1]; Homo sapiens, MB231BR on OBSCs, dose required to kill 90% of the tumor) is reported as greater than 10 µM and the IC50 ([1]; Homo sapiens, MB231Br on OBSCs, dosed day 1, survival via bioluminescence day 4, linear interpolation) is reported as 100 µM. For the same compound, the “Killing at highest dose” value ([1]; MB231BR on OBSCs) was 7.20E-01 fraction of tumor population killed, the AUC ([1]; MB231BR on OBSCs, area under the dose-response curve, trapezoidal rule) was 4.75E+02 and the EC10 ([1]; MB231BR on OBSCs, dose required to kill 10% of the tumor) was 5.26 µM. The EC25 ([1]; MB231BR on OBSCs, dose required to kill 25% of the tumor) was 25 µM, the Slope ([1]; MB231BR on OBSCs, slope through the EC50) was -3.00E-03 and the “Killing at highest dose” value [2] was 4.40E-01 fraction of tumor population killed. The EC50 ([2]; Homo sapiens, LN-229, dose required to kill 50% of the tumor) was greater than 10 µM, the EC90 ([2]; Homo sapiens, LN-229, dose required to kill 90% of the tumor) was greater than 10 µM and the IC50 ([2]; Homo sapiens, LN-229, dosed day 1, survival via bioluminescence day 4, linear interpolation) was greater than 10 µM. For the same compound, the AUC [2, 10] was 6.48E+02, the EC10 [2, 11] was 3.7 µM and the EC25 [2, 12] was 9.26 µM. For the same compound, the Slope ([2]; slope through the EC50) was -1.73E-04, the EC50 ([3]; Homo sapiens, U373 MG, U373 WT on OBSCs, dose required to kill 50% of the tumor) was 260 µM and the EC90 ([3]; Homo sapiens, U373 MG, U373 WT on OBSCs, dose required to kill 90% of the tumor) was greater than 10 µM. The IC50 ([3]; Homo sapiens, U373 MG, U373 WT on OBSCs, dosed day 1, survival via bioluminescence day 4, linear interpolation) was 260 µM, the “Killing at highest dose” value ([3]; U373 WT on OBSCs) was 3.30E-01 fraction of tumor population killed and the AUC ([3]; U373 WT on OBSCs, area under the dose-response curve, trapezoidal rule) was 6.12E+02. The EC10 ([3]; U373 WT on OBSCs, dose required to kill 10% of the tumor) was 25.6 µM, the EC25 ([3]; U373 WT on OBSCs, dose required to kill 25% of the tumor) was 65.4 µM and the Slope ([3]; U373 WT on OBSCs, slope through the EC50) was -1.26E-04. For the same compound, the “DSS (drug sensitivity score)” value ([3]; U373 WT, scale -100 to +100, tumor kill relative to OBSC toxicity) was −13, the EC50 ([4]; Homo sapiens, U373 MG, dose required to kill 50% of the tumor) was 37.8 µM and the EC90 ([4]; Homo sapiens, U373 MG, dose required to kill 90% of the tumor) was greater than 10 µM. The IC50 ([4]; Homo sapiens, U373 MG, dosed day 1, survival via bioluminescence day 4, linear interpolation) was 38 µM, the “Killing at highest dose” value [4] was 6.38E-01 fraction of tumor population killed and the AUC [4, 10] was 3.37E+02. The EC10 [4, 11] was 2.42 µM, the EC25 [4, 12] was 6.06 µM and the Slope ([4]; slope through the EC50) was -3.13E-03. For the same compound, the “Killing at highest dose” value ([5]; GBM8 on OBSCs) was 1.00E+00 fraction of tumor population killed, the AUC ([5]; GBM8 on OBSCs, area under the dose-response curve, trapezoidal rule) was 8.40E+00 and the EC10 ([5]; GBM8 on OBSCs, dose required to kill 10% of the tumor) was 0.558 µM. The EC25 ([5]; GBM8 on OBSCs, dose required to kill 25% of the tumor) was 1.74 µM, the EC75 ([5]; GBM8 on OBSCs, dose required to kill 75% of the tumor) was 7.47 µM and the Slope ([5]; GBM8 on OBSCs, slope through the EC50) was -8.73E-02. The EC50 ([5]; Homo sapiens) was 4.6 µM, the EC90 ([5]; Homo sapiens) was 9.19 µM and the IC50 ([5]; Homo sapiens) was 5.2 µM. The EC50 ([6]; Homo sapiens) was greater than 10 µM, the EC90 ([6]; Homo sapiens) was greater than 10 µM and the “Killing at highest dose” value ([6]; MS21 on OBSCs) was -8.00E-02 fraction of tumor population killed. For the same compound, the AUC ([6]; MS21 on OBSCs, area under the dose-response curve, trapezoidal rule) was 1.15E+03, the EC50 ([7]; Homo sapiens) was 574 µM and the EC90 ([7]; Homo sapiens) was greater than 10 µM. For the same compound, the IC50 ([7]; Homo sapiens) was 574 µM, the “Killing at highest dose” value ([7]; PDIPG on OBSCs) was 7.50E-01 fraction of tumor population killed and the AUC ([7]; PDIPG on OBSCs, area under the dose-response curve, trapezoidal rule) was 6.75E+02. The EC10 ([7]; PDIPG on OBSCs, dose required to kill 10% of the tumor) was 222 µM, the EC25 ([7]; PDIPG on OBSCs, dose required to kill 25% of the tumor) was 242 µM and the EC75 ([7]; PDIPG on OBSCs, dose required to kill 75% of the tumor) was 1000 µM. For the same compound, the Slope ([7]; PDIPG on OBSCs, slope through the EC50) was -5.87E-04, the “DSS (drug sensitivity score)” value [8] was 80 and the “response / killing over the 7 cell lines” value [9] was 6 of 7.
